These are literature values, as cited in patent US20090099199A1, “ORGANIC COMPOUNDS” (priority 2007, published 2009).

Structures are written as SMILES.

This data set deals with rats. Particulars: icv administration (Thorsell et al. Neurosci. Lett. 2002); cited from earlier work.

In the case of `N=C(N)NCCC[C@H](NC(=O)CC1(CC(=O)N2CCN(C3c4ccccc4NC(=O)c4ccccc43)CC2)CCCC1)C(=O)NCCn1c(=O)n(-c2ccccc2)n(-c2ccccc2)c1=O` (stereo partly shown) [BIIE0246], the ethanol self-administration result is reported as “dose dependently reduced ethanol self-administration”.
